One assay addresses T1, human AT1 receptor (Homo sapiens, UniProt P30556).
T1 construct: expressed in transfected cells; host or cells: CHO-K1
T1 sequence (P30556 1-359): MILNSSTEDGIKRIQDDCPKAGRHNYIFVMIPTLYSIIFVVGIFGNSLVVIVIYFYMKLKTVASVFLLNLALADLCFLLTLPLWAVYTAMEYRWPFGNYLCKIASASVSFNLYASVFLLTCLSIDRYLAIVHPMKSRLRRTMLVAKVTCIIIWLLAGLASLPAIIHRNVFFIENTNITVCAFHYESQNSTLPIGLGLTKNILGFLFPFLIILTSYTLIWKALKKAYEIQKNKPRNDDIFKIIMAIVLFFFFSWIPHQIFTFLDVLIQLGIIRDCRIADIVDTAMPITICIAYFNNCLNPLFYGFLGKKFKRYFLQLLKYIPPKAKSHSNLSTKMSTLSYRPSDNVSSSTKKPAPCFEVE
The experiment in a line: Binding assay using human AT1 receptor-expressing CHO-K1 cell membrane fraction ([125I]-angiotensin II). Conditions: 22.5 pM [125I]-angiotensin II, 9 μg AT1 membrane, 1 hr room temperature; read-out: AT1 receptor binding inhibitory action (IC50 (nM)). The gist of the method:
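CHO-K1 membranes stably expressing AT1 (9 μg) incubated with 22.5 pM [125I]-angiotensin II and compound in 50 mM Tris pH 7.4, 10 mM MgCl2, with or without 0.3 mg/mL fatty acid-free BSA, 1 hr at room temperature. Bound radioactivity counted after GF/C filtration; nonspecific binding with 1 μM CV-11974; IC50 calculated.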

The next assay deals with T2, PPARγ (Homo sapiens, UniProt P37231).
T2 construct: expressed in transfected cells; host or cells: CHO-K1
T2 sequence (P37231 1-477 isoform P37231-2): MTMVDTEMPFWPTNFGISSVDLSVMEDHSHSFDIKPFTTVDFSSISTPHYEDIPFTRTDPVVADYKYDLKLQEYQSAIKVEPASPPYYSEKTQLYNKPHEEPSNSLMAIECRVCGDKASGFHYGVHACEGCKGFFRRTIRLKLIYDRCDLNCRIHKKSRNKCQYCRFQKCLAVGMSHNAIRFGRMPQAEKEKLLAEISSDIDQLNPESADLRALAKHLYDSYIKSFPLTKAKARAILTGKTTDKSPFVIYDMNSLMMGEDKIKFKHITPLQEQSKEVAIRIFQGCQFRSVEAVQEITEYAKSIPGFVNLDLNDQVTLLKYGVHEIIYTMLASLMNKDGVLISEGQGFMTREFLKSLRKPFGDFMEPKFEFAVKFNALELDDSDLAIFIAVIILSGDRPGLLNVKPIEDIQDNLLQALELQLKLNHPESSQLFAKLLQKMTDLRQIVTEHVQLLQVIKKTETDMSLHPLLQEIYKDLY
T2 sequence (P19793 1-462 partner): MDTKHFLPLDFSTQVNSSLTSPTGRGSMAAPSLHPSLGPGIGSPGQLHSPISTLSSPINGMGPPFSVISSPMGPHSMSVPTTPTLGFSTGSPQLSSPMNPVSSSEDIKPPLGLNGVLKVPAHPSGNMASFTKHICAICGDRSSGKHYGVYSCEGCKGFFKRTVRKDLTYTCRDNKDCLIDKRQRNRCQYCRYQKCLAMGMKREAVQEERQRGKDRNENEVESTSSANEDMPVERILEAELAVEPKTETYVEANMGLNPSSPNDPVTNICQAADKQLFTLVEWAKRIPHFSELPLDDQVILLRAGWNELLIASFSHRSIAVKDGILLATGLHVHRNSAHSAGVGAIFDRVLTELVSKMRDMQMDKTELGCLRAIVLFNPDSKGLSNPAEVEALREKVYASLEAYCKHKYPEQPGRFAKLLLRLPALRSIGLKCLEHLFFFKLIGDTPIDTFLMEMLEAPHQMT
The experiment in a line: Evaluation of PPARγ activating action (luciferase reporter in PPARγ:RXRα:4ERPP/CHO-K1 cells). In kind it is cell-based. Conditions: CHO-K1, 24 h, read-out: PPARγ activating action (activation % (10^−6 M)). A digest of the protocol: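 CHO-K1 cells stably carrying PPARγ, RXRα and a 4ERPP luciferase reporter were treated with compound for 1 day at 37 °C in F12 medium with 0.1% fatty acid-free BSA. Luciferase activity was read and scaled between no compound (0%) and reference agonist compound X at 1 μM (100%).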
On the technique in general: Reporter assays use an easily measured gene product as a stand-in for the process of interest.

Setting [1] is: test compound 10^−6 M, luciferase activity relative to control compound X (1 μM) = 100%, non-administration group = 0%.

Like-named read-outs stand apart in the source and are kept apart here.

For orientation: IC50 means the concentration that gives 50% inhibition. Regarding `CCCc1nc(C)n(-c2ccc(OC(CC)CC)cc2)c(=O)c1Cc1ccc(-c2ccccc2-c2noc(=O)[nH]2)cc1` [Example 256, 3-[4-(1-ethylpropoxy)phenyl]-2-methyl-5-{[2′-(5-oxo-4,5-dihydro-1,2,4-oxadiazol-3-yl)biphenyl-4-yl]methyl}-6-propylpyrimidin-4(3H)-one], the IC50 at human AT1 receptor is 2 nM. The activation at 1 µM at PPARγ (setting [1]) is 45.7%.
For the molecule `CCCc1nc(CC)n(-c2ccc(OC3(CO)CCCC3)cc2)c(=O)c1Cc1ccc(-c2ccccc2-c2noc(=O)[nH]2)cc1` [Example 390, 2-ethyl-3-(4-{[1-(hydroxymethyl)cyclopentyl]oxy}phenyl)-5-{[2′-(5-oxo-4,5-dihydro-1,2,4-oxadiazol-3-yl)biphenyl-4-yl]methyl}-6-propylpyrimidin-4(3H)-one], the IC50 on human AT1 receptor stood at 1.2 nM. Besides, the activation at 1 µM on PPARγ (setting [1]) came to 19.9%.
Taken in the same sequence, the figures for `CCCc1nc(CC)n(-c2cccc(C(C)(C)O)c2)c(=O)c1Cc1ccc(-c2ccccc2-c2noc(=O)[nH]2)cc1` [Example 365, 2-ethyl-3-[3-(1-hydroxy-1-methylethyl)phenyl]-5-{[2′-(5-oxo-4,5-dihydro-1,2,4-oxadiazol-3-yl)biphenyl-4-yl]methyl}-6-propylpyrimidin-4(3H)-one] were 1.8 nM and 25.3%.
On to `CCCc1nc(CC)c(-c2ccc(OCC3CC3)nc2)c(=O)n1Cc1ccc(-c2ccccc2-c2noc(=O)[nH]2)cc1` [Example 500, 5-[6-(cyclopropylmethoxy)pyridin-3-yl]-6-ethyl-3-{[2′-(5-oxo-4,5-dihydro-1,2,4-oxadiazol-3-yl)biphenyl-4-yl]methyl}-2-propylpyrimidin-4(3H)-one], for which the IC50 on human AT1 receptor is 2.7 nM. In addition, the activation at 1 µM at PPARγ (setting [1]) was determined as 35.9%.
As for `CCCc1nc(CC)n(-c2ccc(OC(C)(C)COC)cc2)c(=O)c1Cc1ccc(-c2ccccc2-c2noc(=O)[nH]2)cc1` [Example 376, 2-ethyl-3-[4-(2-methoxy-1,1-dimethylethoxy)phenyl]-5-{[2′-(5-oxo-4,5-dihydro-1,2,4-oxadiazol-3-yl)biphenyl-4-yl]methyl}-6-propylpyrimidin-4(3H)-one], the IC50 on human AT1 receptor came out at 1.7 nM. Besides, at PPARγ (setting [1]), the activation at 1 µM was 22%.
Taken in the same sequence, the figures for `CCCc1nc(CC)c(-c2ccc(OC(C)C)nc2)c(=O)n1Cc1ccc(-c2ccccc2-c2noc(O)n2)cc1F` [Example 467, 6-ethyl-3-{[3-fluoro-2′-(5-oxo-4,5-dihydro-1,2,4-oxadiazol-3-yl)biphenyl-4-yl]methyl}-5-(6-isopropoxypyridin-3-yl)-2-propylpyrimidin-4(3H)-one] were 2.5 nM and 35.7%.
Taken in the same sequence, the figures for `CCCc1nc(CC)n(-c2ccc(OC3CCOCC3)nc2)c(=O)c1Cc1ccc(-c2ccccc2-c2noc(=O)[nH]2)cc1` [Example 406, 2-ethyl-5-{[2′-(5-oxo-4,5-dihydro-1,2,4-oxadiazol-3-yl)biphenyl-4-yl]methyl}-6-propyl-3-[6-(tetrahydro-2H-pyran-4-yloxy)pyridin-3-yl]pyrimidin-4(3H)-one] were 1.5 nM and 41.9%.
With `CCCc1nc(OC)n(-c2ccc(OC(C)(C)C)cc2)c(=O)c1Cc1ccc(-c2ccccc2-c2noc(O)n2)cc1` [Example 369, 3-(4-tert-butoxyphenyl)-2-methoxy-5-{[2′-(5-oxo-4,5-dihydro-1,2,4-oxadiazol-3-yl)biphenyl-4-yl]methyl}-6-propylpyrimidin-4(3H)-one], the IC50 on human AT1 receptor was determined as 1.9 nM. Also, at PPARγ (setting [1]), the activation at 1 µM came out at 36.3%.
For the molecule `CCCc1nc(C)n(-c2ccc(OC(C)CC)cc2)c(=O)c1Cc1ccc(-c2ccccc2-c2noc(=O)[nH]2)cc1` (stereo not shown) [Example 271, 3-(4-sec-butoxyphenyl)-2-methyl-5-{[2′-(5-oxo-4,5-dihydro-1,2,4-oxadiazol-3-yl)biphenyl-4-yl]methyl}-6-propylpyrimidin-4(3H)-one], on human AT1 receptor, the IC50 was found to be 1.9 nM. Moreover, the activation at 1 µM on PPARγ (setting [1]) stood at 37.1%.
On the same counts, the results for `CCCCc1nc(C)n(Cc2noc(-c3ccccc3)n2)c(=O)c1Cc1ccc(-c2ccccc2-c2noc(=O)[nH]2)cc1` [Example 152, 6-butyl-2-methyl-5-{[2′-(5-oxo-4,5-dihydro-1,2,4-oxadiazol-3-yl)biphenyl-4-yl]methyl}-3-[(5-phenyl-1,2,4-oxadiazol-3-yl)methyl]pyrimidin-4(3H)-one] are 2.1 nM and 64.8%.
Consider `CCCCc1nc(CC)n(Cc2ccccc2)c(=O)c1Cc1ccc(-c2ccccc2-c2noc(=O)[nH]2)cc1` [Example 105, 3-benzyl-6-butyl-2-ethyl-5-{[2′-(5-oxo-4,5-dihydro-1,2,4-oxadiazol-3-yl)biphenyl-4-yl]methyl}pyrimidin-4(3H)-one], for which, on human AT1 receptor, the concentration for half-maximal inhibition (IC50) came to 1.9 nM. Moreover, the activation at 1 µM at PPARγ came out at 64.1%.
In the case of `CCCCc1nc(C)n(-c2ccc3c(c2)CC(C)(C)O3)c(=O)c1Cc1ccc(-c2ccccc2-c2nsc(=O)[nH]2)cc1` [Example 128, 6-butyl-3-(2,2-dimethyl-2,3-dihydro-1-benzofuran-5-yl)-2-methyl-5-{[2′-(5-oxo-4,5-dihydro-1,2,4-thiadiazol-3-yl)biphenyl-4-yl]methyl}pyrimidin-4(3H)-one], the IC50 at human AT1 receptor is 1.9 nM. Further, the activation at 1 µM on PPARγ (setting [1]) was 24.3%.
Consider `CCCc1nc(CC)n(-c2ccc(OC(C)C)cc2)c(=O)c1Cc1ccc(-c2ccccc2-c2noc(=O)[nH]2)cc1` [Example 362, 2-ethyl-3-(4-isopropoxyphenyl)-5-{[2′-(5-oxo-4,5-dihydro-1,2,4-oxadiazol-3-yl)biphenyl-4-yl]methyl}-6-propylpyrimidin-4(3H)-one], for which the IC50 on human AT1 receptor came out at 2.4 nM. The activation at 1 µM at PPARγ (setting [1]) amounted to 58.7%.
Consider `CCCCc1nc(C)n(-c2ccc3c(c2)CC(C)(C)O3)c(=O)c1Cc1ccc(-c2ccccc2-c2noc(O)n2)cc1` [Example 234, 6-butyl-3-(2,2-dimethyl-2,3-dihydro-1-benzofuran-5-yl)-2-methyl-5-{[2′-(5-oxo-4,5-dihydro-1,2,4-oxadiazol-3-yl)biphenyl-4-yl]methyl}pyrimidin-4(3H)-one], for which, at human AT1 receptor, the IC50 is 1.2 nM. The activation at 1 µM on PPARγ (setting [1]) amounted to 33.9%.
As for `CCCc1nc(CC)n(-c2ccc(O[C@H]3CC[C@@H](O)CC3)cc2)c(=O)c1Cc1ccc(-c2ccccc2-c2noc(=O)[nH]2)cc1` [Example 415, 2-ethyl-3-{4-[(cis-4-hydroxycyclohexyl)oxy]phenyl}-5-{[2′-(5-oxo-4,5-dihydro-1,2,4-oxadiazol-3-yl)biphenyl-4-yl]methyl}-6-propylpyrimidin-4(3H)-one], the IC50 at human AT1 receptor turned out to be 1 nM. Also, the activation at 1 µM at PPARγ (setting [1]) amounted to 49.7%.
On the same counts, the results for `CCCCc1nn(-c2ccc3c(c2)CC(C)(C)O3)c(=O)n1Cc1ccc(-c2ccccc2-c2noc(=O)[nH]2)cc1` [Example 136, 3-(4′-{[3-butyl-1-(2,2-dimethyl-2,3-dihydro-1-benzofuran-5-yl)-5-oxo-1,5-dihydro-4H-1,2,4-triazol-4-yl]methyl}biphenyl-2-yl)-1,2,4-oxadiazol-5(4H)-one] are 2.9 nM and 32.9%.
As for `CCCc1ncn(-c2ccc3c(c2)CC(C)(C)O3)c(=O)c1Cc1ccc(-c2ccccc2-c2noc(=O)[nH]2)cc1` [Example 178, 3-(2,2-dimethyl-2,3-dihydro-1-benzofuran-5-yl)-5-{[2′-(5-oxo-4,5-dihydro-1,2,4-oxadiazol-3-yl)biphenyl-4-yl]methyl}-6-propylpyrimidin-4(3H)-one], the IC50 on human AT1 receptor was 2.6 nM. In addition, the activation at 1 µM at PPARγ (setting [1]) amounted to 37.5%.

The values above are taken from patent US20100056526A1, “HETEROMONOCYCLIC COMPOUND AND USE THEREOF” (Takeda Pharmaceutical Company Limited, priority 2006, published 2010).
